Test systems include MALME-3M melanoma; OVCAR-5 ovarian; NCI-H23 lung; HCT-116 colon; HCC-2998 colon; MDA-MB-231 breast; LOX IMVI melanoma; PC-3 prostate; COLO 205 colon; OVCAR-4 ovarian.
What all share (assay): inhibition of tumour cell growth, NCI panel, 48 h

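Compound exposure: 48 hours, 5 concentrations, 96-well plates. GI50 marks 50% less growth. TGI: concentration producing complete growth inhibition.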

With `CNC(=O)Oc1cc(C)c(/C=C/c2cncc(C(=O)NC)c2)c(C)c1`, the GI50 is 13.6 µM in the assay on MALME-3M melanoma; greater than 25 µM in the assay with OVCAR-5 ovarian; greater than 25 µM with NCI-H23 lung; greater than 25 µM in the assay with HCT-116 colon; greater than 25 µM in the assay on HCC-2998 colon; greater than 25 µM in the assay on MDA-MB-231 breast. Besides, the GI50 with LOX IMVI melanoma was 15.9 µM; in the assay with PC-3 prostate, greater than 25 µM; in the assay on COLO 205 colon, greater than 25 µM; with OVCAR-4 ovarian it was greater than 25 µM. Further, the TGI with MALME-3M melanoma, with OVCAR-5 ovarian, with NCI-H23 lung, in the assay with HCT-116 colon, in the assay with HCC-2998 colon and in the assay with MDA-MB-231 breast was greater than 25 µM each time. Further, the TGI in the assay on LOX IMVI melanoma, in the assay on PC-3 prostate, in the assay on COLO 205 colon and in the assay with OVCAR-4 ovarian was greater than 25 µM each time.
Regarding `CCOC(=O)[C@@H](C)C[C@H](Cc1ccccc1)NC(=O)c1csc([C@@H](C[C@H](C(C)C)N(C)C(=O)[C@H](CC)NC(=O)[C@H]2CCCCN2C)OC(C)=O)n1`, the GI50 was less than 0.00167 µM in the assay with MALME-3M melanoma; 0.0108 µM in the assay on OVCAR-5 ovarian; 0.00476 µM with NCI-H23 lung; less than 0.00167 µM with HCT-116 colon; 0.00267 µM in the assay on HCC-2998 colon; 0.00323 µM with MDA-MB-231 breast. Besides, the GI50 with LOX IMVI melanoma was 0.00842 µM; in the assay on PC-3 prostate, less than 0.00167 µM; in the assay with COLO 205 colon, less than 0.00167 µM; in the assay on OVCAR-4 ovarian it was 0.00397 µM. Moreover, the TGI was greater than 16.7 µM in the assay with MALME-3M melanoma; greater than 16.7 µM in the assay on OVCAR-5 ovarian; greater than 16.7 µM in the assay with NCI-H23 lung; 1.68 µM with HCT-116 colon; greater than 5.64 µM with HCC-2998 colon; 0.308 µM with MDA-MB-231 breast. Moreover, the TGI is greater than 16.7 µM in the assay on LOX IMVI melanoma, greater than 16.7 µM in the assay with PC-3 prostate, 0.0211 µM in the assay on COLO 205 colon and greater than 16.7 µM in the assay on OVCAR-4 ovarian.
`Cc1cc(Oc2ccc3nc(COc4ccc(CC5SC(=O)NC5=O)cc4)n(C)c3c2)cc(C)c1N` (stereo not given): the GI50 in the assay on MALME-3M melanoma is greater than 53.3 µM; with OVCAR-5 ovarian it was greater than 63.7 µM; in the assay with NCI-H23 lung, 24.2 µM; in the assay on HCT-116 colon, 26.7 µM; with HCC-2998 colon, 54.9 µM; with MDA-MB-231 breast it was 45.4 µM. Besides, the GI50 in the assay on LOX IMVI melanoma is 17.2 µM; in the assay with PC-3 prostate, 31.8 µM; in the assay on COLO 205 colon, 32.1 µM; with OVCAR-4 ovarian, 34.2 µM. Also, the TGI was greater than 100 µM in the assay on MALME-3M melanoma; greater than 100 µM with OVCAR-5 ovarian; greater than 72.2 µM in the assay on NCI-H23 lung; greater than 85.3 µM in the assay with HCT-116 colon; greater than 100 µM in the assay on HCC-2998 colon; greater than 100 µM with MDA-MB-231 breast. Also, the TGI in the assay with LOX IMVI melanoma is greater than 71.3 µM; in the assay on PC-3 prostate, greater than 90.1 µM; in the assay on COLO 205 colon, greater than 100 µM; in the assay with OVCAR-4 ovarian it was greater than 100 µM.
Take `Cc1cc(O)cc(C)c1/C=C/c1cncc(-c2nn[nH]n2)c1`: the GI50 in the assay on MALME-3M melanoma, with OVCAR-5 ovarian, with NCI-H23 lung, in the assay with HCT-116 colon, in the assay on HCC-2998 colon and with MDA-MB-231 breast was greater than 25 µM in each case. Also, the GI50 in the assay with LOX IMVI melanoma, in the assay with PC-3 prostate, with COLO 205 colon and in the assay with OVCAR-4 ovarian was greater than 25 µM in each case. Besides, the TGI in the assay with MALME-3M melanoma, in the assay on OVCAR-5 ovarian, with NCI-H23 lung, in the assay on HCT-116 colon, with HCC-2998 colon and in the assay with MDA-MB-231 breast was greater than 25 µM each time. For the same compound, the TGI in the assay with LOX IMVI melanoma, in the assay on PC-3 prostate, in the assay with COLO 205 colon and with OVCAR-4 ovarian was greater than 25 µM in each case.
On to `COc1ccc(-c2c(-c3cc(OC)c(OC)c(OC)c3)noc2N)cc1`, for which the GI50 in the assay on MALME-3M melanoma is 13.4 µM; in the assay with OVCAR-5 ovarian, 0.0441 µM; in the assay with NCI-H23 lung, 0.0198 µM; in the assay with HCT-116 colon, less than 0.01 µM; with HCC-2998 colon it was 0.0197 µM; in the assay with MDA-MB-231 breast, 0.06 µM. Also, the GI50 is less than 0.0141 µM in the assay with LOX IMVI melanoma, less than 0.0119 µM in the assay with PC-3 prostate, less than 0.0123 µM with COLO 205 colon and 0.0249 µM in the assay with OVCAR-4 ovarian. Further, the TGI in the assay on MALME-3M melanoma is 56.8 µM; in the assay on OVCAR-5 ovarian, greater than 70 µM; in the assay on NCI-H23 lung it was 30 µM; with HCT-116 colon, greater than 32 µM; in the assay on HCC-2998 colon it was 25.1 µM; in the assay on MDA-MB-231 breast it was 90.1 µM. The TGI is greater than 100 µM in the assay on LOX IMVI melanoma, greater than 100 µM with PC-3 prostate, 0.0551 µM in the assay with COLO 205 colon and 57.5 µM in the assay on OVCAR-4 ovarian.
As to `CCS(=O)(=O)Nc1cccc(Nc2c3cccc(C)c3nc3c(C)cccc23)c1OC`, the GI50 is 0.901 µM with MALME-3M melanoma; 3.86 µM in the assay with OVCAR-5 ovarian; 0.653 µM with NCI-H23 lung; 0.793 µM with HCT-116 colon; 2.99 µM in the assay on HCC-2998 colon; 5.2 µM in the assay with MDA-MB-231 breast. For the same compound, the GI50 was 0.273 µM in the assay on LOX IMVI melanoma, 1.67 µM in the assay on PC-3 prostate, 2.56 µM with COLO 205 colon and 9.78 µM in the assay with OVCAR-4 ovarian. Also, the TGI is greater than 47.4 µM with MALME-3M melanoma; 41.5 µM in the assay with OVCAR-5 ovarian; greater than 100 µM in the assay on NCI-H23 lung; greater than 51.9 µM in the assay on HCT-116 colon; greater than 71.1 µM with HCC-2998 colon; 41.4 µM with MDA-MB-231 breast. Moreover, the TGI with LOX IMVI melanoma was greater than 91.5 µM; with PC-3 prostate, 19.2 µM; in the assay with COLO 205 colon, greater than 100 µM; in the assay on OVCAR-4 ovarian, greater than 75.8 µM.

The values above are taken from PubChem BioAssay (NCI).
